These results are taken from US9732092B2, “Substituted 2,3,4,5,7,9,13,13a-octahydropyrido[1′,2′:4,5]pyrazino[2,1-b][1,3]OXAZEPINES and methods for treating viral infections” (Gilead Sciences, Inc., priority 2012, dated 2017).

One series can be described thus: in vitro. As to conditions: human. Here is the method: (§1) For the antiviral assay utilizing MT4 cells, 0.4 μL of […] test concentration of 3-fold serially diluted compound in DMSO was added to 40 μL of cell growth medium (RPMI 1640, 10% FBS, 1% penicilline/Streptomycine, 1% L-Glutamine, 1% HEPES) in each well of 384-well assay plates (10 concentrations) in quidruplicate.
(§2) 1 mL aliquots of 2×10^6 MT4 cells are pre-infected for 1 and 3 hours respectively at 37° C. with 25 μL (MT4) or of either cell growth medium (mock-infected) or a fresh 1:250 dilution of an HIV-IIIb concentrated ABI stock (0.004 m.o.i. for MT4 cells). Infected and uninfected cells are diluted in cell growth medium and 35 μL of 2000 (for MT4) cells is added to each well of the assay plates.
(§3) Assay plates were then incubated in a 37° C. incubator. After 5 days of incubation, 25 μL of 2× concentrated CellTiter-GloT Reagent (catalog # G7573, Promega Biosciences, Inc., Madison, Wis.) was added to each well of the assay plate. Cell lysis was carried out by incubating at room temperature for 2-3 minutes, and then chemiluminescence was read using the Envision reader (PerkinElmer).

The test system of a further series is MT4 cells. Kind of series: Cytotoxicity (CC50) in MT4 cells, mock-infected. As to conditions: read-out: CC50 nM in MT-4; MT4 cells, 5 days, CellTiter-Glo. How it is done:
as §1, §2, §3

A short description of series [1]: Pharmacokinetic analysis following oral administration to beagle dogs. Format: in vivo. As to conditions: beagle dog, 1 mg/kg. How it is done: Pharmacokinetic analysis was performed on various test compounds following intravenous or oral administration to beagle dogs.
For pharmacokinetic analysis of intravenously administered compounds, the test compounds were formulated in 5% Ethanol, 55% PEG 300, and 40% water at 0.1 mg/mL for IV infusion. For pharmacokinetic analysis of orally administered compounds, the test compounds were formulated as an aqueous suspension in 0.1% Tween 20, 0.5% HPMC LV100 in Di Water at 1 mg/kg.
Each dosing group consisted of 3 male, non-naïve purebred beagle dogs. At dosing, the animals weighed between 10 to 13 kg. The animals were fasted overnight prior to dose administration and up to 4 hr after dosing. For studies of intravenous administration, the test article was administered to the animals by intravenous infusion over 30 min. The rate of infusion was adjusted according to the body weight of each animal to deliver a dose of 0.5 mg/kg. […]
For pharmacokinetic analysis of orally administered compounds, serial venous blood samples (approximately 0.3 mL each) were taken from each animal at time points of 0, 0.25, 0.50, 1.0, 2.0, 4.0, 6.0, 8.0, 12.0 and 24.0 hours after dosing. Blood samples were collected, prepared and analyzed in a similar way to the intranveous studies described above. […]

For another series, the target named is human PXR (NR1I2) (Homo sapiens (Human), UniProt O75469). The experiment in a line: Human PXR activation assay (luciferase reporter gene, DPX2 cells). As to conditions: relative to maximum fold induction by 10 or 20 μM rifampicin. The series is classed as cell-based. Here is the method: A stably transformed tumor cell line (DPX2) was plated on 96-well microtiter plates. DPX2 cells harbor the human PXR gene (NR1I2) and a luciferase reporter gene linked to two promoters identified in the human CYP3A4 gene, namely XREM and PXRE. […] The number of viable cells was determined and the reporter gene activity was assessed. Positive control: […]
Sequence of human PXR (NR1I2) (O75469 whole entry): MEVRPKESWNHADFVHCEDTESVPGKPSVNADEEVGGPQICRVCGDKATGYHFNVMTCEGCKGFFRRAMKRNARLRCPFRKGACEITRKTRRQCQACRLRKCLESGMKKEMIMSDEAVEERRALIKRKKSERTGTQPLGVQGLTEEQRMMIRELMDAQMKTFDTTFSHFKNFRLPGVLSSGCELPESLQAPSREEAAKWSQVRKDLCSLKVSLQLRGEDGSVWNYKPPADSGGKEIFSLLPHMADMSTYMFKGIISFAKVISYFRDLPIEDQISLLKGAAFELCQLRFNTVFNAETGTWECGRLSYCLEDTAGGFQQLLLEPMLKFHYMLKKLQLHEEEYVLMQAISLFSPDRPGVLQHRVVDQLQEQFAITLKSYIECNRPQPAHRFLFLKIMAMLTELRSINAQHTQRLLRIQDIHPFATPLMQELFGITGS
In general terms: A reporter such as luciferase makes a cellular process visible.

[2] abbreviates: MT4 cells, mock-infected (uninfected).

In “in vitro”, `O=C(NCc1ccc(F)cc1F)c1cn2c(c(O)c1=O)C(=O)N1[C@@H]3COC[C@@H](C3)O[C@H]1C2` (racemic) [50/51, N-(2,4-difluorobenzyl)-9-hydroxy-8,10-dioxo-2,3,5,6,8, 10,14,14a-octahydro-2,6-methanopyrido[1′,2′:4,5]pyrazino[2,1-b][1,6,3]dioxazocine-11-carboxamide] returned a CC50 at 5 days of 37.2 µM. Take `O=C(NC1(c2ccc(F)cc2F)CCCCC1)c1cn2c(c(O)c1=O)C(=O)N1C(C2)O[C@H]2CC[C@@H]1C2` (stereo partly drawn) [Compound 34, (2S,5R)—N-(1-(2,4-difluorophenyl)cyclohexyl)-8-hydroxy-7,9-dioxo-2,3,4,5,7,9,13,13a-octahydro-2,5-methanopyrido[1′,2′:4, 5]pyrazino[2,1-b][1,3]oxazepine-10-carboxamide]: the CC50 in the series on MT4 cells worked out at 3580 nM.

On to `O=C(NCc1c(F)cc(F)cc1F)c1cn2c(c(O)c1=O)C(=O)N1[C@H]3CC[C@H](C3)O[C@@H]1C2` [Compound 42, (2R,5S,13aR)-8-hydroxy-7,9-dioxo-N-(2,4,6-trifluorobenzyl)-2,3,4,5,7,9,13,13a-octahydro-2,5-methanopyrido[1′,2′:4,5]pyrazino[2,1-b][1,3]oxazepine-10-carboxamide], for which the “F (%) aqueous suspension” value in series [1] is 28.0%. As for `O=C(NCc1c(F)cc(F)cc1F)c1cn2c(c(O)c1=O)C(=O)N1[C@H]3CC[C@H](CC3)[C@H]1C2` [Compound 101, (1R,4R,12aS)-7-hydroxy-6,8-dioxo-N-(2,4,6-trifluorobenzyl)-1,2,3,4,6,8,12,12a-octahydro-1,4-ethanodipyrido[1,2-a:1′,2′-d]pyrazine-9-carboxamide], the CC50 at 5 days in the series “in vitro” (setting [2]) stood at 11.6 µM. `O=C(NCc1c(F)cc(F)cc1F)c1cn2c(c(O)c1=O)C(=O)N1[C@H]3CC[C@H](CC3)[C@@H]1C2` [Compound 102, (1S,4S,12aR)-7-hydroxy-6,8-dioxo-N-(2,4,6-trifluorobenzyl)-1,2,3,4,6,8,12, 12a-octahydro-1,4-ethanodipyrido[1,2-a:1′,2′-d]pyrazine-9-carboxamide] came in with a CC50 at 5 days in the series “in vitro” (setting [2]) of 12 µM. For the same molecule, the Emax at 24 h, 15 µM on human PXR (NR1I2) was determined as 123%.

A word on the Emax: it is the maximal effect, on the per cent scale that the assay sets.
